The results in this text go back to patent US7678787B2, “Pyrrolobenzodiazepine pyridine carboxamides and derivatives as follicle-stimulating hormone receptor antagonists” (Wyeth, priority 2005, dated 2010).

Usually inhibition stands for the change of the read-out against control, counted positive when it falls. A word on the melting point: it is the temperature of the solid-liquid transition.

The target in one data set is T1, human FSH receptor (Homo sapiens, UniProt P23945).
T1 construct: host or cells: CHO-K1 (CHO FSH-R 6CRE-Luc, 1D7 cells)
T1 sequence (P23945 18-695): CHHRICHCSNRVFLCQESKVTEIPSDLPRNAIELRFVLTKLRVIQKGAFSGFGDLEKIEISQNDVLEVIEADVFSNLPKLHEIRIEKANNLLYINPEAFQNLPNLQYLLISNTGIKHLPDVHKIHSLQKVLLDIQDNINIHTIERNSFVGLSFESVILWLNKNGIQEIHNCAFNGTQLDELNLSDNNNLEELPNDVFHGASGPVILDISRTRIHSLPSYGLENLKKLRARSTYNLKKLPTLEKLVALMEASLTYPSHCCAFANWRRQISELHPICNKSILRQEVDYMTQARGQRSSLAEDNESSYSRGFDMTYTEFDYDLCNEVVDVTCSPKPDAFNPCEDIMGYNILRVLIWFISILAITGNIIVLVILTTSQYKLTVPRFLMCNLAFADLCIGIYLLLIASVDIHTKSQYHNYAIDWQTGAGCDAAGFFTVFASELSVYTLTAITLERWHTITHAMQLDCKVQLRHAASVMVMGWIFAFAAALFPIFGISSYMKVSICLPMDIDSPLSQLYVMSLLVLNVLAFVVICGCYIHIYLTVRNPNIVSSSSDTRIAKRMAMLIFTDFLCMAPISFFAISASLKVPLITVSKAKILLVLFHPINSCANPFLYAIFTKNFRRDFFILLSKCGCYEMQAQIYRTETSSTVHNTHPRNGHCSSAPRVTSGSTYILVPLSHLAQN
The data set is described as follows: FSH receptor-dependent CRE-luciferase reporter gene assay (CHO FSH-R 6CRE-Luc cells). The format is cell-based. The conditions noted are these: 2-dose format; test concentration in parentheses = 30 μM; percent inhibition of response to EC50 of FSH; read-out: CRE % inhibition. Background: Reporter assays use an easily measured gene product as a stand-in for the process of interest.

`O=C(NCc1cccnc1)c1ccc2n1Cc1ccccc1N(C(=O)/C=C/c1ccccc1)C2` [Example 144] gave a melting point of 175 °C. On human FSH receptor, the inhibition at 30 µM turned out to be 35%.

For the compound `O=C(NCc1cccnc1)c1ccc2n1Cc1ccccc1N(C(=O)c1cccc3ccccc13)C2` [Example 145], the melting point stood at 188 °C. Further, at human FSH receptor, the inhibition at 30 µM came to 40%.

The compound `CC(C)(C)CC(=O)N1Cc2ccc(C(=O)NCc3cccnc3)n2Cc2ccccc21` [Example 148] gave a melting point of 103 to 107 °C. Further, at human FSH receptor, the inhibition at 30 µM stood at 35%.
